25 molecules from patent publication US20060194259A1, “Method for isolating an allosteric effector of a receptor” (priority 2002, published 2006) can be followed below.

Molecules are shown by their SMILES. A value given as a limit tells only on which side of the number the result lay.

Assay [1] addresses T1, receptor EGFP-NK2R (UniProt P16610).
T1 sequence (P16610 1-390): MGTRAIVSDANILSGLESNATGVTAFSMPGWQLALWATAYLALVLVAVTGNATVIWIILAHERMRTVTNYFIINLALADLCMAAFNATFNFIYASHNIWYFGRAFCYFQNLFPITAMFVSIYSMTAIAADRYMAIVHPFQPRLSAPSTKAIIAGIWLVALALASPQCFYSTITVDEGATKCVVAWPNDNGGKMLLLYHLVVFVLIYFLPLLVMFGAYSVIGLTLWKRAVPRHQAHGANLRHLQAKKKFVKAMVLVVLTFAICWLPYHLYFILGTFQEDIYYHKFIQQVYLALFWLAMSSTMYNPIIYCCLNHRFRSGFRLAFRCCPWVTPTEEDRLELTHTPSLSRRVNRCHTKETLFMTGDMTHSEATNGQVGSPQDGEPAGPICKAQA
Briefly: Dissociation kinetics of NKA-Bo bound to EGFP-NK2R by fluorescence energy transfer. Type of assay: binding. More on the design: % al (max): maximum value observed for the increase in amplitude of the rapid dissociation rate; ns = n; other: 20 nM of NK; % al (at 10 μM); other: compou; fused on or other part: EGFP fused to the receptor as FRET donor. The settings on record: for % al (at 10 μM): compound 10 μM, T = 22 ± 1 is amplitude of rapid dissociation in the absence of effector; for % al (max): maximum value observed for the increase in amplitude of the rapid dissociation rate / EC50 / EC50 (μM): concentration of compound causing a 50% increase (relative to the maximum value) in the percentage of the amplitude of the rapid dissociation rate: Table 1, ns = not significant; for EC50: read-out: EC50 (μM): concentration of compound causing a 50% increase (relative to the maximum value) in the percentage of the amplitude of the rapid dissociation rate; for EC50 / EC50 (μM): concentration of compound causing a 50% increase (relative to the maximum value) in the percentage of the amplitude of the rapid dissociation rate: dissociation of NKA-Bo from EGFP-NK2R. As to the method: Dissociation (FIG. 4B): HEK 293 cells expressing the receptor EGFP-NK2R are put into suspension at a concentration of 1,000,000 cells/ml in Hepes physiological buffer (in mM: 137.5 NaCl; 1.25 MgCl2; 1.25 CaCl2; 6 KCl; 5.6 glucose; 10 Hepes; 0.4 NaH2PO4; 1% BSA (w/v); pH 7.4) and arranged in a 1 ml cuvette equipped with a magnetic stirrer on the cuvette holder of a SPEX fluorolog 3 spectrofluorimeter.
(§1) The amplitude of each relaxation is then given by the adjustment of the experimental traces.

Assay [2] deals with T1, receptor EGFP-NK2R. Briefly: Reversion of the binding of NKA-Bo to EGFP-NK2R by fluorescence energy transfer. More on the design: % al (max): maximum value observed for the increase in amplitude of the rapid dissociation rate; ns = n; other: 20 nM of NK; % al (at 10 μM); other: compou; fused on or other part: EGFP fused to the receptor as FRET donor. The settings on record: for % bond reversion (at 10 μM): compound 10 μM; for IC50: read-out: IC50 (μM): concentration of compound for which a 50% reduction is observed in the binding of NKA-Bo, 20 nM of NKA-Bo, EGFP-NK2R receptor.
Text: as §1

The subject of assay [3] is cells not expressing the EGFP-NK2R receptor. Briefly: Calcium response on cells not expressing the receptor. The format is cell-based. Set-up: key: ns: not significant; ?: uniterpretable. As to conditions: Table 1.
Where [4] appears, read: in the presence of 50 μM compound, dissociation by non-fluorescent NKA.

Regarding `N#CCN(Cc1ccc2ccccc2c1)Cc1ccccc1Br` [CV1-80, [(2-bromobenzyl)(2-naphthylmethyl)amino]acetonitrile], the “% al (at 10 μM)” value in assay [1] is recorded as 25%. Besides, the “% bond reversion (at 10 μM)” value in assay [2] came to 16%.

Regarding `N#CCN(Cc1ccccc1)Cc1c[nH]c2ccccc12` [CV1-81], the “% al (at 10 μM)” value in assay [1] turned out to be 22%. Also, the “% bond reversion (at 10 μM)” value in assay [2] came to 15%.

In the case of `N#CCN(Cc1ccccc1)Cc1cccc(Br)c1` [CV1-84, [benzyl(3-bromobenzyl)amino]acetonitrile], in assay [1], the “% al (at 10 μM)” value came out at 25%. Besides, the “% bond reversion (at 10 μM)” value in assay [2] is recorded as 4%.

As to `N#CCN(Cc1ccccc1)Cc1ccc(Br)cc1` [CV1-85, [benzyl(4-bromobenzyl)amino]acetonitrile], the “% al (at 10 μM)” value in assay [1] is on record as 28%. In assay [2], the “% bond reversion (at 10 μM)” value worked out at 4%.

Turning to `N#CCN(Cc1ccc(Br)cc1)Cc1ccc2ccccc2c1` [CV1-93, [4-bromobenzyl(2-naphthylmethyl)amino]acetonitrile], the “% al (at 10 μM)” value in assay [1] is listed as 26%. Moreover, in assay [2], the “% bond reversion (at 10 μM)” value amounted to 3%.

As to `N#CCN(Cc1ccccc1)Cc1cccc(Cl)c1Cl` [CV1-97], the “% al (at 10 μM)” value in assay [1] came to 34%. Moreover, the “% bond reversion (at 10 μM)” value in assay [2] turned out to be 15%.

On to `N#CCN(Cc1ccccc1)Cc1ccc(Cl)cc1` [CV1-122], for which the “% al (at 10 μM)” value in assay [1] is 31%. Besides, the “% bond reversion (at 10 μM)” value in assay [2] is 17%.

For the molecule `N#CCN(Cc1ccccc1)Cc1cccc(Cl)c1` [CV1-123], in assay [1], the “% al (at 10 μM)” value is reported as 26%. For the same molecule, the “% bond reversion (at 10 μM)” value in assay [2] amounted to 7%.

In the case of `N#CCN(Cc1ccc(CCc2ccccc2)cc1)Cc1ccc2ccccc2c1` [CV1-135], the “% al (at 10 μM)” value in assay [1] was determined as 22%. Moreover, in assay [2], the “% bond reversion (at 10 μM)” value turned out to be 6%.

In the case of `c1ccc(CNc2ncc(-c3ccccc3)s2)cc1` [F3, Benzyl-(5-phenyl-thiazol-2-yl)-amine], in assay [1], the “% al (max): maximum value observed for the increase in amplitude of the rapid dissociation rate” value is listed as 65% and the EC50 was in the range of 1 to 5 µM.

With `O=C(CC(Nc1ncc(-c2ccccc2)s1)c1ccccc1)c1ccccc1` (stereo not drawn) [F7, 1,3-Diphenyl-3-(5-phenyl-thiazol-2-ylamino)-propan-1-one], in assay [1], the “% al (max): maximum value observed for the increase in amplitude of the rapid dissociation rate” value is “≧60%” and the EC50 was at least 50 µM. In assay [3], the “Ca Rep.: ability to evoke a calcium response on cells not expressing the EGFP-NK2R receptor” value was “ns”. Besides, the IC50 in assay [2] came out at 90 µM.

On to `Cc1ccc(NC(CC(=O)c2ccccc2)c2ccccc2)nc1` (stereo not drawn) [F9, 3-(5-Methyl-pyridin-2-ylamino)-1,3-diphenyl-propan-1-one], for which, in assay [1], the “EC50 (μM): concentration of compound causing a 50% increase (relative to the maximum value) in the percentage of the amplitude of the rapid dissociation rate” value was “ns” and the “% al (max): maximum value observed for the increase in amplitude of the rapid dissociation rate” value is given as “ns”. The IC50 in assay [2] is over 50 µM.

For `NCCCC(NC(=O)c1ccccc1)C(=O)NC(Cc1ccccc1)C(N)=O` (stereo not drawn) [G6, N-(4-amino-1-(1-carbamoyl-2-phenyl-ethylcarbamoyl)-butyl)-benzamide], in assay [1], the “EC50 (μM): concentration of compound causing a 50% increase (relative to the maximum value) in the percentage of the amplitude of the rapid dissociation rate” value is on record as “ns” and the “% al (max): maximum value observed for the increase in amplitude of the rapid dissociation rate” value is given as “ns”. The “effect on the dissociation kinetics of NKA-Bo” value in assay [1] (dissociation by non-fluorescent NKA in the presence of compound) is listed as “does not alter the dissociation rate”. Besides, in assay [1] (setting [4]), the “amplitude of the rapid dissociation of NKA-Bo (% of total signal)” value was found to be 66% and the “amplitude of the slow dissociation of NKA-Bo (% of total signal)” value came to 33%. Besides, the IC50 in assay [2] was determined as 46 µM.

On to `CCOC(=O)c1ccc(CN(CC#N)Cc2ccc3ccccc3c2)cc1` [G11, 4-[(Cyanomethyl-naphthalen-2-ylmethyl-amino)-methyl]-benzoic acid ethyl ester], for which, in assay [1], the “% al (max): maximum value observed for the increase in amplitude of the rapid dissociation rate” value is reported as 70% and the EC50 was in the range of 10 to 30 µM. Also, the “Ca Rep.: ability to evoke a calcium response on cells not expressing the EGFP-NK2R receptor” value in assay [3] is “ns”. Further, the IC50 in assay [2] is over 100 µM.

As to `Nc1ccc(CNCc2ccc3ccccc3c2)cc1` [H3, 4-{[(Naphthalen-2-ylmethyl)-amino]-methyl}-phenylamine], in assay [1], the “EC50 (μM): concentration of compound causing a 50% increase (relative to the maximum value) in the percentage of the amplitude of the rapid dissociation rate” value is on record as “ns” and the “% al (max): maximum value observed for the increase in amplitude of the rapid dissociation rate” value is “ns”. In addition, the “Ca Rep.: ability to evoke a calcium response on cells not expressing the EGFP-NK2R receptor” value in assay [3] is “ns”. Further, the IC50 in assay [2] is over 50 µM.

Regarding `Clc1ccc(CNCc2ccc3ccccc3c2)cc1` [H6, (4-Chloro-benzyl)-naphthalen-2-ylmethyl-amine], in assay [1], the “% al (max): maximum value observed for the increase in amplitude of the rapid dissociation rate” value is recorded as 80% and the EC50 fell in the range of 50 to 80 µM. Also, the IC50 in assay [2] was over 100 µM.

As to `NC(=O)CN(Cc1ccc2ccccc2c1)c1ccccc1` [H10, 2-(Naphthalen-2-ylmethyl-phenyl-amino)-acetamide], in assay [1], the “% al (max): maximum value observed for the increase in amplitude of the rapid dissociation rate” value is reported as over 60% and the EC50 was over 50 µM. The “Ca Rep.: ability to evoke a calcium response on cells not expressing the EGFP-NK2R receptor” value in assay [3] is given as “ns”. In addition, in assay [2], the IC50 was at least 100 µM.

On to `N#CCN(Cc1ccc(Cl)cc1)Cc1ccc2ccccc2c1` [NP234 or 801, [(4-chlorobenzyl)(2-naphthylmethyl)amino]acetonitrile], for which, in assay [1], the “% al (max): maximum value observed for the increase in amplitude of the rapid dissociation rate” value is 60-70% and the EC50 is 5 to 10 µM. Moreover, the “Ca Rep.: ability to evoke a calcium response on cells not expressing the EGFP-NK2R receptor” value in assay [3] was “ns”. Also, the IC50 in assay [2] worked out at 110 µM.

Regarding `N#CCN(Cc1ccc(Cl)c(Cl)c1)Cc1ccc2ccccc2c1` [NP246 or 803, [(3,4-dichlorobenzyl)(2-naphthylmethyl)amino]acetonitrile], in assay [1], the “% al (max): maximum value observed for the increase in amplitude of the rapid dissociation rate” value is 60-70% and the EC50 is 10 to 30 µM. For the same molecule, in assay [1] (at 100 μM of effector, approximately 25% in the absence of effector), the “fraction of receptors in the low-affinity state” value is about 100%. Moreover, the “Ca Rep.: ability to evoke a calcium response on cells not expressing the EGFP-NK2R receptor” value in assay [3] is “ns”. Moreover, the IC50 in assay [2] was over 500 µM.

For `CC(=O)NC1(c2ccccc2)CCN(CC[C@H](CN(C)C(=O)c2ccccc2)c2ccc(Cl)c(Cl)c2)CC1` [SR 48968, reference compound], the “ratio of rapid/slow amplitudes of dissociation of NKA-Bo” value in assay [1] (each tested concentration of SR 48968) was 45/55. Besides, the “relative amplitude of rapid dissociation (0.04 s^-1) of NKA-Bo” value in assay [1] (in the presence of 0.2, 1 and 5 nM of SR 48968) was 45%.

Consider `N#CCN(Cc1ccc(N)cc1)Cc1cccc2ccccc12` [compound 804, [(4-aminobenzyl)(1-naphthylmethyl)amino]acetonitrile], for which, in assay [1], the “% al (max): maximum value observed for the increase in amplitude of the rapid dissociation rate” value is “≧80%” and the EC50 lay within 20 to 30 µM. The “Ca Rep.: ability to evoke a calcium response on cells not expressing the EGFP-NK2R receptor” value in assay [3] is on record as “ns”. Also, the IC50 in assay [2] is over 100 µM.

In the case of `COC(=O)CN(Cc1ccccc1)Cc1ccc2ccccc2c1` [compound 806, methyl [benzyl(2-naphtylmethyl)amino]acetate], in assay [1], the “% al (max): maximum value observed for the increase in amplitude of the rapid dissociation rate” value is given as 90% and the EC50 was 10 to 20 µM. Besides, the “Ca Rep.: ability to evoke a calcium response on cells not expressing the EGFP-NK2R receptor” value in assay [3] is reported as “ns”. In addition, the IC50 in assay [2] was over 200 µM.

Consider `NC(=O)CN(Cc1ccccc1)Cc1ccc2ccccc2c1` [compound 807, 2-[benzyl(2-naphthylmethyl)amino]acetamide], for which the “% al (max): maximum value observed for the increase in amplitude of the rapid dissociation rate” value in assay [1] was “≧90%”. In addition, the “Ca Rep.: ability to evoke a calcium response on cells not expressing the EGFP-NK2R receptor” value in assay [3] is listed as “+?”.

On to `C#CCN(Cc1ccccc1)Cc1ccc2ccccc2c1` [compound 808, N-benzyl-N-(2-naphthylmethyl)-N-prop-2-ynylamine], for which, in assay [1], the “% al (max): maximum value observed for the increase in amplitude of the rapid dissociation rate” value is reported as “≧70%” and the EC50 lay within 20 to 30 µM. Moreover, the IC50 in assay [2] was over 200 µM.

`N#CCN(Cc1ccccc1)c1ncc(-c2ccccc2)s1` [compound 809, [benzyl(5-phenyl-1,3-thiazol-2-yl)amino]acetonitrile]: in assay [1], the “% al (max): maximum value observed for the increase in amplitude of the rapid dissociation rate” value was “≧75%” and the EC50 was in the range of 1 to 20 µM. For the same molecule, the IC50 in assay [2] is over 100 µM.
